From patent publication US11066436B2, “5′-phosphorothiolate mRNA 5′-end (cap) analogs, mRNA comprising the same, method of obtaining and uses thereof” (Uniwersytet Warszawski, priority 2016, dated 2021)

Tests used:
[1] = system: rabbit reticulocyte lysate; test: Translational efficiency of capped Renilla luciferase mRNAs in rabbit reticulocyte lysate; assay type: biochemical; conditions: Renilla luciferase mRNA capped with the analog; normalized to m^7GpppG-capped mRNA; biological triplicates
Procedure: Test 5. Study on the Effect of the Presence of Novel Cap Analogs on Translational Efficiency of mRNAs in Rabbit Reticulocyte Lysate.
The aim of this study was to check the effect of introducing novel cap analogs at the 5′ end of mRNAs on translation efficiency. For this purpose series of Renilla luciferase encoding mRNAs, and differing in the cap structure at the 5′ end were prepared. The transcripts used for this test were obtained by in vitro transcription reaction using SP6 RNA polymerase. As the template for the in vitro transcription a PCR product was used, prepared using primers […] (SEQ ID NO: 6) and […] (SEQ ID NO: 7) and the hRLuc-pRNA2(A)128 plasmid (Williams et al. 2010). PCR reaction thus conducted allowed to introduce promoter sequence for SP6 polymerase upstream of the sequence encoding Renilla luciferase. The transcription reaction itself was similar to the short RNA synthesis described above (Test 4). The reaction was conducted for 2 hours in 20 μl in 40° C. and contained the following: 1U SP6 polymerase, 1 U RiboLock RNase Inhibitor (ThermoFisher Scientific), 0.5 mM ATP/CTP/UTP, 0.125 mM GTP, 1.25 mM dinucleotide cap analog and […] of a template. Following 2 hours incubation, 1U DNase I (Ambion) was added and incubation was continued for 30 min in 37° C., after that EDTA was added to 25 mM final concentration. Obtained mRNAs were purified using NucleoSpin RNA Clean-up XS (Macherey-Nagel). Quality of the synthetized RNA was checked on a denaturing 15% polyacrylamide gel. The RNA concentrations were determined spectrophotometrically.
An in vitro translation reaction was performed in rabbit reticulocyte lysate (RRL, Promega) in conditions determined for cap-dependent translation (Rydzik et al., 2009). A typical reaction mixture (10 μl) contained: 40% RRL lysate, 0.01 mM mixture of amino acids (Promega), 1.2 mM MgCl2, 170 mM potassium acetate and a Renilla luciferase encoding mRNA with an appropriate cap analog at the 5′ end, the mixture being incubated in 37° C. for 1 hour. Four different concentrations of mRNAs: 0.1 ng/μl, 0.25 ng/μl, 0.5 ng/μl, 0.75 ng/μl were used in the experiment. Activity of synthesized luciferase was measured using Dual-Luciferase Reporter Assay System (Promega) in a microplate reader Synergy H1 (BioTek). Obtained results were analyzed in Origin (Gambit) software, and theoretical curve was fitted to experimental data, wherein the slope of obtained curve represents translation efficiency. Representative data were presented on FIG. 10, whereas average translation efficiency obtained for biological triplicates is presented in Table 6.

[2] = target: T1, Dcp1/2 decapping enzyme (SpDcp1/2) (Schizosaccharomyces pombe, UniProt O13828); test: Susceptibility of short capped RNAs to degradation with the Dcp1/2 enzyme; assay type: biochemical; conditions: RNA capped with the analog; 3.5 nM Dcp1/2, time point 15 min, normalized to 0′ time
T1 construct: made in house
T1 sequence (O13828 1-243 limits assumed): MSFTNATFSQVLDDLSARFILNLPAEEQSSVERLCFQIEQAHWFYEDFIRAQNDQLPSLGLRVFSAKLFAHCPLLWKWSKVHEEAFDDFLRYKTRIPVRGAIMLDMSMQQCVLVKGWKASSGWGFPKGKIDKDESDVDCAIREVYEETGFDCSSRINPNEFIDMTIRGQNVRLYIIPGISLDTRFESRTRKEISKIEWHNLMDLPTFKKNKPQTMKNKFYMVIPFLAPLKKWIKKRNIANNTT
T1 sequence (Q9P805 1-127 partner): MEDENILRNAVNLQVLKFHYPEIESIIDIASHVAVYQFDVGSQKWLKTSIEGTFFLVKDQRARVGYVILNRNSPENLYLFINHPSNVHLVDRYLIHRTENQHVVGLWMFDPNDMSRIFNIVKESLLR
Text: Test 4. Susceptibility Study of Short RNA Molecules Comprising Cap Analogs at the 5′ End to Degradation with the Dcp1/2 Enzyme.
The aim of this study was to check whether incorporation of selected 5′-phosphothioate cap analogs to 5′ end of RNA could influence susceptibility of thus prepared transcripts towards Dcp1/2 decapping enzyme activity. Schizosaccharomyces pombe recombinant protein in the form of a heterodimer Dcp1/2 was obtained as described previously (Floor, Jones et al. 2010). The trancripts utilized in this assay were obtained by transcription in vitro using RNA SP6 polymerase (New England BioLabs). Annealed oligonucleotides: […] (SEQ ID NO.: 1), and […] (SEQ ID NO: 2) were used as a template in in vitro transcription, the oligonucleotides comprising the promoter sequence for SP6 polymerase (ATTTAGGTGACACTATAGA (SEQ ID NO: 3)) allow to obtain 35 nt long RNAs having a sequence of […] (SEQ ID NO: 4), however 5′ end capped RNAs are 36 nt long. Typical in vitro transcription reaction was performed in volume 20 μl and was incubated in 40° C. for 2 hours and contained the following: 1U SP6 polymerase, 1 U RiboLock RNase Inhibitor (ThermoFisher Scientific), 0.5 mM ATP/CTP/UTP, 0.125 mM GTP, 1.25 mM dinucleotide cap analog and 0.1 μM template. Following 2 hours incubation, 1U DNase I (Ambion) was added to the reaction mixture and incubation was continued for 30 min in 37° C., after that EDTA was added to 25 mM final concentration. Obtained RNAs were purified using RNA Clean & Concentrator-25 (Zymo Research). Then the quality of the synthesized RNA was determined on a denaturating 15% polyacrylamide gel. The concentration of the RNA was in turn evaluated spectrophotometrically. […] RNA having a cap at the 5′ end was 26 nt long. The reaction of cleaving the 3′ ends was as follows: 1 μM of RNA was incubated with 1 μM of DNazyme 10-23 in a mixture containing 50 mM MgCl2 and 50 mM Tris-HCl pH 8.0 for 1 hour in 37° C. (Coleman et al., 2004).
For enzymatic tests 20 ng of each RNA was used, which were incubated with 3.5 nM Dcp1/2 enzyme in buffer containing 50 mM Tris-HCl pH 8.0, 50 mM NH4Cl, 0.01% NP-40, 1 mM DTT, and 5 mM MgCl2. Reactions were performed at 37° C. in the final volume of 25 μl. The reaction was stopped after 0, 5, 15 and 30 min by adding an equal amount of a mixture of 5 M urea, 44% formamide, 20 mM EDTA, 0.03% bromophenol blue, 0.03% xylene cyanol. Reaction products were resolved on denaturing 15% polyacrylamide gels, after the electrophoretic separation was completed, the gel was stained with SYBR Gold (Invitrogen) and visualized using a Storm 860 PhosphorImager (GE Healthcare). Quantification of the obtained results was performed with ImageQuant software (Molecular Dynamics). Representative results of this assay were presented on FIG. 8, FIG. 9 and also in Table 6.

[3] = target: T2, human DcpS enzyme (hDcpS) (Homo sapiens, UniProt Q96C86); test: Susceptibility of cap analogs to degradation by DcpS enzyme (RP-HPLC); assay type: biochemical; conditions: cap analog 20 μM, hDcpS 100 nM, RP-HPLC
T2 construct: made in house
T2 sequence (Q96C86 1-337): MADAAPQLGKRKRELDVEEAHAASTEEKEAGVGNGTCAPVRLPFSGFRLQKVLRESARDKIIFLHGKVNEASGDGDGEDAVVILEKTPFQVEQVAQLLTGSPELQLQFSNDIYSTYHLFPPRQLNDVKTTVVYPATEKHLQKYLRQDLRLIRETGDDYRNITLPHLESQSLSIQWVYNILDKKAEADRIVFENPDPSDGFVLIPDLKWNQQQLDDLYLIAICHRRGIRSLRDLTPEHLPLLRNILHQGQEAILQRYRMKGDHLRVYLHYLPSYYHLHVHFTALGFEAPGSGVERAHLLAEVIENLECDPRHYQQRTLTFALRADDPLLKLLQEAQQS
Procedure: Test 1. The Susceptibility Study of Analogs to Degradation by DcpS Enzyme.
The aim of the test was to check if new 5′-thiophosphate cap analogs are hydrolyzed by human DcpS enzyme (hDcpS). Recombinant human protein encoding DcpS enzyme was expressed as described previously (Kowalska, Lewdorowicz et al. 2008). The susceptibility of new analogs to hDcpS hydrolysis is tested in 50 mM Tris-HCl buffer containing 200 mM KCl and 0.5 mM EDTA. Reaction mixture includes the tested cap analog (20 μM) and hDcpS enzyme (100 nM) in 400 μl of buffer. At the appropriate intervals 100 μl sample is collected from the reaction mixture. Sample is incubated at 98° C. for 2.5 min, and then cooled to 0° C. and analyzed on RP-HPLC under conditions described in general informations. In tests also commercially available inhibitor of DcpS was tested, the compound RG3039 (no. 000) (https://www.mda.org/quest/fda-approves-phase-1-clinical-trial-rg3039-sma), GppSG (no. 19), GpppSG (no. 20), as well m^7GpppG (no. 0) and m^7Gpp (no. 00) as controls. Exemplary results obtained are shown on FIG. 5 and Table 5.

mice with SMA = conditions: reported by Van Meerbeke, Gibbs et al.; cited from earlier work

SMILES	relative translation efficiency [1]	Dcp1/2 susceptibility [2]	DcpS susceptibility [3]	motor function in mice with SMA (mice with SMA)
COC1C(O)[C@@H](COP(=O)(O)OP(=O)(O)OP(=O)([O-])SC[C@H]2O[C@@H](n3cnc4c(=O)[nH]c(N)nc43)C(O)C2O)O[C@H]1n1c[n+](C)c2c(O)nc(N)nc21 (some centres unmarked) [No. 38, P1-(2′-O-methyl-7-methyl-guanosin-5′-yl)-P3-(5′-deoxy-5′-thioguanosin-5′-yl) triphosphate]	2.23 ± 0.31	0.52		
Nc1nc2c(ncn2[C@@H]2O[C@H](COP(=O)(O)OP(=O)(O)OP(=O)(O)OC[C@H]3O[C@@H](n4cnc5c(=O)[nH]c(N)nc54)[C@H](O)[C@@H]3O)[C@@H](O)[C@H]2O)c(=O)[nH]1 [GpppG]	0.05 ± 0.01	0		
CO[C@@H]1[C@H](O)[C@@H](COP(=O)(O)OP(=O)([O-])OP(=O)(O)OC[C@H]2O[C@@H](n3cnc4c(=O)[nH]c(N)nc43)[C@H](O)[C@@H]2O)O[C@H]1n1c[n+](C)c2c(O)nc(N)nc21 [m2^7,2′-oGpppG]	1.56 ± 0.14	0.52		
COC1C(O)C(COP(=O)(O)OP(=O)(S)OP(=O)(O)OCC2OC(n3cnc4c(=O)[nH]c(N)nc43)C(O)C2O)OC1n1c[n+](C)c2c(=O)[nH]c(N)nc21 (centres unmarked) [m2^7,2′-oGppspG D2]	3.45 ± 0.42	0.43		
Cn1c[n+]([C@@H]2O[C@H](COP(=O)(O)OP(=O)([O-])OP(=O)(O)OC[C@H]3O[C@@H](n4cnc5c(=O)[nH]c(N)nc54)[C@H](O)[C@@H]3O)[C@@H](O)[C@H]2O)c2nc(N)[nH]c(=O)c21 [No. 0]	1.00	0.69	hydrolyzable	
Nc1nc(N)c2c(OCC3CCN(Cc4c(Cl)cccc4Cl)CC3)cccc2n1 [No. 000]				improves motor function
COC1C(O)[C@@H](CSP(=O)([O-])OP(=O)(O)OP(=O)(O)OC[C@H]2O[C@@H](n3cnc4c(=O)[nH]c(N)nc43)C(O)C2O)O[C@H]1n1c[n+](C)c2c(O)nc(N)nc21 (some centres unmarked) [No. 26, P1-(2′-O-methyl-7-methyl-5′-deoxy-5′-thioguanosin-5′-yl)-P3-guanosin-5′-yl triphosphate]	1.73 ± 0.24	0.07		
